Entries after “also recorded” stand apart in the source; their conditions may differ. Where a name gives a salt, the structure may show the parent alone.

One series has as its system HL-60 cells. The experiment in a line: alamarBlue cell viability assay, HL-60. Type of series: cell-based. The settings on record: Homo sapiens, HL-60, 72 h, alamarBlue, 72 h; read-out: HL-60 IC50 ± SEM. The text has this:
Cell viability and proliferation assays were used to evaluate the in vitro cytotoxicity of all synthesised compounds in a variety of different cancer cell lines using the alamarBlue® viability assay and the results are presented in Table 1 and Table 2. The sensitivity of cancer cells to drugs can often be compromised by PIK3CA, Ras and BRAF mutations. To determine whether such mutations are critical to the efficacy of our new compounds we tested them in a range of cancerous cell lines expressing different mutations. Firstly, we used the HL-60 (human promyelocytic leukaemia, NRas mutated) cell line for general cytotoxicity screening of all compounds. […] Lastly, toxicity against MCF-10A, which is a non-tumorigenic epithelial cell line, was also assessed for one of the most promising compounds (4). The graphs representing the viability results with the HL-60, MCF-7, HeLa, HCT-116, and HKH-2 cancer cell lines for compound 1 and derivatives 2, 3, and 4 are shown in Figures S7–S10 (ESI).
Cells were counted and seeded in 96-well plates at a density of 2 × 10^5 cells/mL for HL-60, 2.5 × 10^4 cells/mL for MCF-7, MCF10A and HeLa, 1 × 10^5 cells/mL for HCT116 and HKH-2, all of them in their respective media. The 96-well plates were then treated with a 1:100 dilution of stock concentrations of drugs or EtOH (1% v/v)/DMSO (0.1% v/v) as vehicle control in triplicate. Three blank wells containing 200 µL RPMI with no cells were also set-up as blanks. After a 72 h incubation, 20 µL of alamarBlue was added to each well. The plates were incubated in darkness at 37 °C for 4–5 h using a Molecular Devices microplate reader, the fluorescence (F) was then read at an excitation wavelength of 544 nm and an emission wavelength of 590 nm. Cell viability was then determined by subtracting the mean blank fluorescence (Fb) from the treated sample fluorescence (Fs) and expressing this as a percentage of the fluorescence of the blanked vehicle control (Fc). […] The results were then plotted as a nonlinear regression, sigmoidal dose-response curves on Prism, from which the IC50 value for each drug was determined. […]
Pharmacy, TCD. It was maintained in Roswell Park Memorial Institute (RPMI) 1640 medium with stable glutamate (GlutaMax I) supplemented with 10% (v/v) fetal bovine serum (FBS), 1% (v/v) penicillin/ streptomycin (pen-strep) and 2 mM L-glutamine. […]
4.4. AlamarBlue ® Cell Viability Assay
Cells were counted and seeded in 96 well plates at a density of 2 × 10^5 cells/mL for HL-60, 2.5× 10^4 cells/mL for MCF-7, MCF10A and HeLa, 1 × 10^5 cells/mL for HCT116 and HKH-2, all of them in their respective media. The 96 well plates were then treated with a 1:100 dilution of stock concentrations of drugs or EtOH (1% v/v)/DMSO (0.1% v/v) as vehicle control in triplicate.
Three blank wells containing 200 µL media with no cells were also set-up as blanks. After a 72 h incubation, 20 µL of AlamarBlue was added to each well. The plates were incubated in darkness at 37 °C for 4-5 h. Using a Molecular Devices microplate reader, the fluorescence (F) was then read at an excitation wavelength of 544 nm and an emission wavelength of 590 nm.
Cell viability was then determined by subtracting the mean blank fluorescence (Fb) from the treated sample fluorescence (Fs) and expressing this as a percentage of the fluorescence of the blanked vehicle control (Fc). […] The results were […]
then plotted as a nonlinear regression, sigmoidal dose-response curves on Prism, from which the IC50 value for each drug was determined.
Fs − Fb x 100 = % Cell Viability
60 cell line in a dose-dependent manner.
(1 picture or pasted object on this page, not shown here)
Background: The colour change of resazurin is a common sign of viable cells or microbes.

Series [1] deals with ERK phosphorylation (MAPK/ERK pathway). The experiment in a line: Western immunoblot of ERK phosphorylation in HL-60 extracts. Format: cell-based, human. As to conditions: HL-60, 5 µM, 16 h. On the procedure:
Thus, using Western immunoblot analysis of HL-60 extracts, we investigated the expression and phosphorylation levels of ERK (as an indication of ERK activation), which is the downstream effector of the Ras/BRAF signalling pathway (Figure 6).
HL60s were seeded in T25 flasks at 50 × 10^4 cells/mL and cells were treated with either vehicle [0.5% EtOH (v/v)], 1–4, 9 or 52 (5 µM), as well as 1 (10 µM as reported). After 16 h, cells were collected and washed with PBS. Cell pellets were re-suspended in cold cell lysis buffer (radio-immunoprecipitation assay buffer) supplemented with 1% phosphatase inhibitor cocktail 2 and 3 (Sigma) and 10% protease inhibitor (Roche). Cells were lysed for 30 min on ice. Protein concentration was then determined by BCA assay. Lysates were boiled with Laemmli sample buffer [Tris-HCL 50 mM (pH 6.7), glycerol 10% (w/v), sodium dodecyl sulphate 2% (w/v), bromophenol blue 0.02% (w/v)] containing DTT […] for 10 min at 90 °C. Moreover, 20 µg of lysates were resolved by sodium dodecyl sulphate polyacrylamide gel electrophoresis (SDS-PAGE) and transferred onto PVDF transfer membrane (EMD Millipore). Membranes were blocked with 5% non-fat milk and probed with primary antibodies for ERK and phospho-ERK (Cell Signalling). Anti-GAPDH was used as a loading control (Calbiochem).
Figure 6 Western immunoblot of HL-60 cell extracts following incubation with compounds 2, 3, 4, 9, 52 and 1 (as a control). HL60 cells were seeded at 2 × 10^5 cells/mL and were treated with either vehicle [0.5% EtOH (v/v)], compounds 52, 2, 9, 3 and 4 (5 µM) or compound 1 (5 and (*) 10 µM, as in reference) for 16 h. Cells were lysed and equal amounts of protein were loaded and separated on 15% SDS-PAGE gels, transferred to PVDF membrane and probed with antibodies against total and phosphorylated ERK. Anti-GAPDH was used as a loading control. Results are representative of 2 independent experiments.
HL-60 cells were seeded in T25 flasks at 50 x10^4 cells/mL and treated with either vehicle [0.5% […]
After 16 hours, cells were […]
collected and washed with PBS. Cell pellets were re-suspended in cold cell lysis buffer (radio-immunoprecipitation assay buffer) supplemented with 1% phosphatase inhibitor cocktail 2 and 3 (Sigma) and 10% protease inhibitor (Roche). Cells were lysed for 30 minutes on ice.
Protein concentration was then determined by BCA assay. Lysates were boiled with laemmli sample buffer [Tris-HCL 50 mM (pH 6.7), glycerol 10% (w/v), sodium dodecyl sulphate 2% (w/v), bromophenol blue 0.02% (w/v)] containing DTT […] for 10 min. at 90 °C. Also 20 µg of lysates were resolved by sodium dodecyl sulphate polyacrylamide gel electrophoresis (SDS - PAGE) and transferred onto PVDF transfer membrane (EMD Millipore). Membranes were blocked with 5% non-fat milk and probed with primary antibodies for ERK and phospho-ERK (Cell Signaling). Anti-GAPDH was used as a loading control (Calbiochem).
For orientation: Immunoblotting shows a protein as a band on a membrane.

As a reminder, the IC50 is the concentration at which inhibition is half-maximal. The melting point is the temperature, or range, at which the solid turns liquid. `Cl.N=C(N)Nc1ccc(Oc2cccc(Nc3ccc(Cl)cc3)c2)cc1` [Compound 28, 1-(4-(3-((4-Chlorophenyl)amino)phenoxy)phenyl)guanidine hydrochloride]: the melting point fell in the range of 50 to 52 °C. In addition, in the series with HL-60 cells, the IC50 came to 7.5 ± 0.05 µM.

In the case of `N=C(N)Nc1ccc(Oc2cccc(NC(=N)Nc3ccc(Br)cc3)c2)cn1` [Compound 51, 1-(4-Bromophenyl)-3-(3-((6-guanidinopyridin-3-yl)oxy)phenyl)guanidine dihydrochloride], the IC50 in the series on HL-60 cells amounted to 9.37 ± 0.54 µM.

For `N=C(N)Nc1ccc(Oc2cccc(NC(=N)Nc3ccc(F)c(F)c3)c2)cn1` [Compound 49, 1-(3,4-Di-fluorophenyl)-3-(3-((6-guanidinopyridin-3-yl)oxy)phenyl)guanidine dihydrochloride], the IC50 with HL-60 cells is 11.6 ± 0.27 µM.

Regarding `N=C(N)Nc1cccc(Oc2ccc(N=C(N)Nc3ccc(Br)c(C(F)(F)F)c3)cc2)c1` [Compound 11, 1-(4-Bromo-3-(trifluoromethyl)phenyl)-2-(4-(3-guanidinophenoxy)phenyl)guanidine dihydrochloride], in the series with HL-60 cells, the IC50 was determined as 11 ± 0.64 µM.

`N=C(N)Nc1ccc(Oc2cccc(N=C(N)Nc3ccc(I)cc3F)c2)cc1` [Compound 7, 1-(2-Fluoro-4-iodophenyl)-2-(3-(4-guanidinophenoxy)phenyl)guanidine dihydrochloride]: the IC50 in the series on HL-60 cells is 8.63 ± 0.51 µM. In turn, `Cl.N=C(N)Nc1ccc(Oc2cccc(Nc3cccc(S(F)(F)(F)(F)F)c3)c2)cc1` [Compound 30, 1-(4-(3-((3-(Pentafluorosulfanyl)phenyl)amino)phenoxy)phenyl)guanidine hydrochloride] showed a melting point of 104 to 106 °C. The IC50 in the series on HL-60 cells was 3.23 ± 0.36 µM. In the case of `Cl.Cl.N=C(N)Nc1ccc(Oc2cccc(NC(=N)Nc3ccc(Br)c(C(F)(F)F)c3)c2)cn1` [Compound 52, 1-(4-Bromo-3-(trifluoromethyl)phenyl)-3-(3-((6-guanidinopyridin-3-yl)oxy)phenyl) guanidine dihydrochloride], the IC50 in the series on HL-60 cells worked out at 1.53 ± 0.23 µM. In addition, the “effect on ERK phosphorylation (Ras/BRAF pathway)” value in series [1] is “inhibiting ERK phosphorylation; also recorded: abrogates ERK activation”. `N=C(N)Nc1ccc(Oc2cccc(N=C(N)Nc3ccc(Br)cc3)c2)cc1` [Compound 8, 1-(4-Bromophenyl)-2-(3-(4-guanidinophenoxy)phenyl)guanidine dihydrochloride]: the IC50 with HL-60 cells is 15.3 ± 1.98 µM. For `Cl.Cl.N=C(N)Nc1ccc(Oc2cccc(N=C(N)Nc3ccc(Br)c(C(F)(F)F)c3)c2)cc1` [Compound 9, 1-(4-Bromo-3-(trifluoromethyl)phenyl)-2-(3-(4-guanidinophenoxy)phenyl)guanidine dihydrochloride], the IC50 in the series on HL-60 cells stood at 2.07 ± 0.33 µM. In addition, the “effect on ERK phosphorylation (Ras/BRAF pathway)” value in series [1] was “inhibiting ERK phosphorylation; also recorded: abrogates ERK activation”. For the compound `N=C(N)Nc1ccc(Oc2cccc(NC(=N)Nc3ccc(I)cc3F)c2)cn1` [Compound 50, 1-(2-Fluoro-4-iodophenyl)-3-(3-((6-guanidinopyridin-3-yl)oxy)phenyl)guanidine dihydrochloride], the IC50 with HL-60 cells came out at 8.33 ± 0.32 µM. For the compound `N=C(N)Nc1cccc(Oc2ccc(N=C(N)Nc3ccc(I)cc3F)cc2)c1` [Compound 10, 1-(2-Fluoro-4-iodophenyl)-2-(4-(3-guanidinophenoxy)phenyl)guanidine dihydrochloride], in the series on HL-60 cells, the IC50 was found to be 8.85 ± 0.55 µM.

For the compound `N=C(N)Nc1ccc(Oc2cccc(NC(=N)Nc3ccc(F)c(F)c3)c2)cc1` [Compound 6, 1-(3:4-Di-fluorophenyl)-2-(3-(4-guanidinophenoxy)phenyl)guanidine dihydrochloride], the IC50 with HL-60 cells was > 100 µM.

In the case of `N=C(N)Nc1ccc(Oc2cc(F)cc(Nc3ccc(Cl)c(C(F)(F)F)c3)c2)cc1` [Compound 36, 1-(4-(3-((4-Chloro-3-(trifluormethyl)phenyl)amino)-5-fluorophenoxy)phenyl)guanidine hydrochloride], the IC50 with HL-60 cells is 4.07 ± 0.1 µM. The compound `N=C(N)Nc1ccc(Oc2cccc(NC(=N)Nc3ccc(F)c(F)c3)c2)cc1` (as salt: hydrochloride) [Compound 6, 1-(3:4-Di-fluorophenyl)-2-(3-(4-guanidinophenoxy)phenyl)guanidine dihydrochloride] yielded a melting point of 158 to 160 °C. The compound `NS(=O)(=O)Nc1ccc(Oc2cccc(Nc3ccc(Cl)c(C(F)(F)F)c3)c2)cc1` [Compound 75] displayed a melting point of 124 to 126 °C. Moreover, the IC50 in the series with HL-60 cells was determined as 9.14 ± 0.69 µM. In the case of `N=C(N)Nc1ccc(Oc2cccc(N=C(N)Nc3ccc(F)cc3)c2)cc1` [Compound 5, 1-(4-Fluorophenyl)-2-(3-(4-guanidinophenoxy)phenyl)guanidine dihydrochloride], in the series on HL-60 cells, the IC50 is > 100 µM. Compound `N=C(N)Nc1ccc(Oc2cc(F)cc(Nc3ccc(Cl)c(C(F)(F)F)c3)c2)cc1` (as salt: hydrochloride) [Compound 36, 1-(4-(3-((4-Chloro-3-(trifluormethyl)phenyl)amino)-5-fluorophenoxy)phenyl)guanidine hydrochloride] came in with a melting point of 92 to 94 °C.

`Cl.N=C(N)Nc1ccc(Oc2cccc(Nc3cccc(C(F)(F)F)c3)c2)cc1` [Compound 29, 1-(4-(3-((3-(Trifluoromethyl)phenyl)amino)phenoxy)phenyl)guanidine hydrochloride] gave a melting point of 93 to 95 °C. The IC50 with HL-60 cells was found to be 4.64 ± 0.83 µM.

(Values after paper PMC7767381, “Exploring the Anti-Cancer Mechanism of Novel 3,4′-Substituted Diaryl Guanidinium Derivatives” (Pharmaceuticals, 2020).)
